ChEMBL document CHEMBL5247640 (J Med Chem, 2023)
Activity calls are given as the source filed them. The rule behind the calls is not given here.

Columns and labels:
[1] = target: T1, Thyroid hormone receptor alpha (Homo sapiens, UniProt P10827); experiment: Agonist activity at human THRalpha transfected in Huh7 cells co-transfected with luciferase reporter plasmid assessed as […] luciferase activity incubated for 16 hrs by Steady-Glo luciferase assay; format: cell-based, Huh-7
T1 sequence (P10827 whole entry): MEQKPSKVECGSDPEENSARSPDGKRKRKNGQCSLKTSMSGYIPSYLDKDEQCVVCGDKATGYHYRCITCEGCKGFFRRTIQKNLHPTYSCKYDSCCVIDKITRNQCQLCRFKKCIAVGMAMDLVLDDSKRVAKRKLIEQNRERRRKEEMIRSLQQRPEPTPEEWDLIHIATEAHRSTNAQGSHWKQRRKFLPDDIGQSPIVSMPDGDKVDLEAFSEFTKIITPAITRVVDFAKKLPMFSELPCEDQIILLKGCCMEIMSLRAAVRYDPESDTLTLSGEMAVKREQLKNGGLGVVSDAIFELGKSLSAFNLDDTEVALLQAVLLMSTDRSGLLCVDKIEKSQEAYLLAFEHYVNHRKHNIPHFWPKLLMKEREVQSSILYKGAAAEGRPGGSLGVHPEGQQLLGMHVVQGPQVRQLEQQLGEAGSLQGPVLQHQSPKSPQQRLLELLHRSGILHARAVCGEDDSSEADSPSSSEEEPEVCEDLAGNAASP

[2] = target: T2, Thyroid hormone receptor beta (Homo sapiens, UniProt P10828); experiment: Agonist activity at human THRbeta transfected in Huh7 cells co-transfected with luciferase reporter plasmid assessed as […] luciferase activity incubated for 16 hrs by Steady-Glo luciferase assay; format: cell-based, Huh-7
T2 sequence (P10828 whole entry): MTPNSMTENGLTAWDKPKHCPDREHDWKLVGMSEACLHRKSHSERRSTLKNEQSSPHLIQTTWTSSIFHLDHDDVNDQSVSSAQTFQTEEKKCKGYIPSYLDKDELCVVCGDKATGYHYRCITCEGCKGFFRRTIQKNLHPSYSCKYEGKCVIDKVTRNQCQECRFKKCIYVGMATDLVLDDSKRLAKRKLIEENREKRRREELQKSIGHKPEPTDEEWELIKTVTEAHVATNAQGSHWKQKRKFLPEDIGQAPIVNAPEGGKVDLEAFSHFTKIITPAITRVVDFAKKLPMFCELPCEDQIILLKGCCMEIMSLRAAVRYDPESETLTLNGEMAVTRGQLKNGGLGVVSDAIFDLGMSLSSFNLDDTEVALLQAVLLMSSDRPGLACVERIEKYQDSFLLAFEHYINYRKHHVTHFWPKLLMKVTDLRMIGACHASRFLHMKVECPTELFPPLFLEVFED

[3] = Fold of selectivity, ratio of compound EC50/T3 EC50 for THRalpha to ratio of compound EC50/T3 EC50 for THRbeta
Mus musculus [4] = experiment: Anti-NASH activity in high-fat diet and CCl4-induced nonalcoholic steatohepatitis C57BL/6J mouse assessed as reduction in col-1A1 gene expression in liver at 3 to 10 mg/kg, po once daily and measured after 48 hrs […]; format: functional, organism-based; settings: dose 3-10 mg/kg
[5] = Half life in ICR mouse at 30 mg/kg, po measured after 24 hrs by LC-MS/MS analysis; format: ADME, organism-based; settings: in vivo
[6] = Tmax in ICR mouse at 30 mg/kg, po measured after 24 hrs by LC-MS/MS analysis; format: ADME, organism-based; settings: in vivo
[7] = Cmax in ICR mouse at 30 mg/kg, po measured after 24 hrs by LC-MS/MS analysis; format: ADME, organism-based; design: time 24 hrs, dose 30 mg/kg, route po; settings: in vivo
[8] = AUClast in ICR mouse at 30 mg/kg, po measured after 24 hrs by LC-MS/MS analysis; format: ADME, organism-based; design: dose 30 mg/kg, time 24 hrs, route po; settings: in vivo
[9] = Metabolic stability in human liver microsomes assessed as half life; format: ADME, Microsome
[10] = Metabolic stability in rat liver microsomes assessed as half life; format: ADME, Microsome
[11] = Metabolic stability in mouse liver microsomes assessed as half life; format: ADME, Microsome
[12] = Metabolic stability in dog liver microsomes assessed as half life; format: ADME, Canis lupus familiaris, Microsome
[13] = Metabolic stability in monkey liver microsomes assessed as half life; format: ADME, Macaca mulatta, Microsome; settings: rhesus monkey
[14] = Metabolic stability in human liver microsomes assessed as intrinsic clearance; format: ADME, Microsome
[15] = Metabolic stability in rat liver microsomes assessed as intrinsic clearance; format: ADME, Microsome
[16] = Metabolic stability in mouse liver microsomes assessed as intrinsic clearance; format: ADME, Microsome
[17] = Metabolic stability in monkey liver microsomes assessed as intrinsic clearance; format: ADME, Macaca mulatta, Microsome; settings: rhesus monkey
[18] = Half life in ICR mouse serum at 10 mg/kg, po measured after 24 hrs by LC-MS/MS analysis; format: ADME, organism-based
[19] = Tmax in ICR mouse serum at 10 mg/kg, po measured after 24 hrs by LC-MS/MS analysis; format: ADME, organism-based
[20] = Tmax in ICR mouse liver at 10 mg/kg, po measured after 24 hrs by LC-MS/MS analysis; format: ADME, organism-based
[21] = Cmax in ICR mouse serum at 10 mg/kg, po measured after 24 hrs by LC-MS/MS analysis; format: ADME, organism-based; design: dose 10 mg/kg, time 24 hrs, route po
[22] = Cmax in ICR mouse liver at 10 mg/kg, po measured after 24 hrs by LC-MS/MS analysis; format: ADME, organism-based; design: dose 10 mg/kg, time 24 hrs, route po
[23] = AUClast in ICR mouse serum at 10 mg/kg, po measured after 24 hrs by LC-MS/MS analysis; format: ADME, organism-based; design: time 24 hrs, dose 10 mg/kg, route po
[24] = Toxicity in ICR mouse assessed as decrease in serum total cholesterol level at 30 mg/kg, po administered as single dose measured after 24 hrs by automated biochemical analyzer; format: organism-based; design: scale not given: the % may be the effect or the level left; settings: in vivo
[25] = Toxicity in ICR mouse assessed as decrease in serum total cholesterol level at 3 mg/kg, po administered as single dose measured after 24 hrs by automated biochemical analyzer; format: organism-based; design: scale not given: the % may be the effect or the level left; settings: in vivo
[26] = Toxicity in ICR mouse assessed as decrease in serum total cholesterol level at 10 mg/kg, po administered as single dose measured after 24 hrs by automated biochemical analyzer; format: organism-based; design: scale not given: the % may be the effect or the level left; settings: in vivo
[27] = Toxicity in ICR mouse assessed as decrease in serum total LDL-cholesterol level at 3 mg/kg, po administered as single dose measured after 24 hrs by automated biochemical analyzer; format: organism-based; design: scale not given: the % may be the effect or the level left; settings: in vivo
[28] = Toxicity in ICR mouse assessed as decrease in serum total LDL-cholesterol level at 10 mg/kg, po administered as single dose measured after 24 hrs by automated biochemical analyzer; format: organism-based; design: scale not given: the % may be the effect or the level left; settings: in vivo
[29] = Hepatotoxicity in ICR mouse assessed as upregulation of Dio1 mRNA expression in liver by measuring fold change at 3 to 10 mg/kg, po administered as single dose by qRT-PCR analysis; format: toxicity, organism-based; settings: in vivo, dose 3-10 mg/kg
[30] = Hepatotoxicity in ICR mouse assessed as upregulation of THRSP mRNA expression in liver by measuring fold change at 3 to 10 mg/kg, po administered as single dose by qRT-PCR analysis; format: toxicity, organism-based; settings: in vivo, dose 3-10 mg/kg
[31] = Hepatotoxicity in ICR mouse assessed as upregulation of Me1 mRNA expression in liver by measuring fold change at 3 to 10 mg/kg, po administered as single dose by qRT-PCR analysis; format: toxicity, organism-based; settings: in vivo, dose 3-10 mg/kg
Mus musculus [32] = experiment: Anti-NASH activity in high-fat diet and CCl4-induced nonalcoholic steatohepatitis C57BL/6J mouse assessed as decrease in serum total cholesterol level administered orally once daily for 6 weeks; format: functional, organism-based; settings: dose 3-10 mg/kg, route po
Mus musculus [33] = experiment: Anti-NASH activity in high-fat diet and CCl4-induced nonalcoholic steatohepatitis C57BL/6J mouse assessed as decrease in serum LDL-cholesterol level administered orally once daily for 6 weeks; format: functional, organism-based; settings: dose 3-10 mg/kg, route po
[34] = Cardiotoxicity in ICR mouse assessed as changes in Myh6 mRNA expression in heart at 3 to 10 mg/kg, po administered as single dose by qRT-PCR analysis; format: toxicity, organism-based; settings: in vivo, dose 3-10 mg/kg
[35] = Cardiotoxicity in ICR mouse assessed as changes in Myh7 mRNA expression in heart at 3 to 10 mg/kg, po administered as single dose by qRT-PCR analysis; format: toxicity, organism-based; settings: in vivo, dose 3-10 mg/kg
[36] = Cardiotoxicity in ICR mouse assessed as changes in Myh6/Myh7 ratio in heart at 3 to 10 mg/kg, po administered as single dose by qRT-PCR analysis; format: toxicity, organism-based; settings: in vivo, dose 3-10 mg/kg
Mus musculus [37] = experiment: Anti-NASH activity in high-fat diet and CCl4-induced nonalcoholic steatohepatitis C57BL/6J mouse assessed as decrease in liver steatosis at 3 to 10 mg/kg, po once daily and measured after 48 hrs by hematoxylin and eosin staining based microscopic analysis; format: functional, organism-based; settings: dose 3-10 mg/kg
Mus musculus [38] = experiment: Anti-NASH activity in high-fat diet and CCl4-induced nonalcoholic steatohepatitis C57BL/6J mouse assessed as decrease in inflammation score at 3 to 10 mg/kg, po once daily and measured after 48 hrs by hematoxylin and eosin staining based microscopic analysis; format: functional, organism-based; settings: dose 3-10 mg/kg
Mus musculus [39] = experiment: Anti-NASH activity in high-fat diet and CCl4-induced nonalcoholic steatohepatitis C57BL/6J mouse assessed as decrease in NAFLD activity score at 3 to 10 mg/kg, po once daily and measured after 48 hrs by hematoxylin and eosin staining based microscopic analysis; format: functional, organism-based; settings: dose 3-10 mg/kg
Mus musculus [40] = experiment: Anti-NASH activity in high-fat diet and CCl4-induced nonalcoholic steatohepatitis C57BL/6J mouse assessed as reduction in liver fibrosis area at 3 to 10 mg/kg, po once daily and measured after 48 hrs by sirius red staining based assay; format: functional, organism-based; settings: dose 3-10 mg/kg

Cc1cc2c(ccn2-c2c(Cl)cc(-n3nc(C#N)c(=O)[nH]c3=O)cc2Cl)cc1O
EC50 [1]: > 1200 nM
EC50 [2]: > 3700 nM

COc1ccc2c(ccn2-c2c(Cl)cc(-n3nc(C#N)c(=O)[nH]c3=O)cc2Cl)c1
EC50 [1]: > 11000 nM
EC50 [2]: > 33000 nM

CC(C)n1c(=O)ccc2c1ccn2-c1c(Cl)cc(NC(=O)CC(=O)O)cc1Cl
EC50 [1]: 440 nM
EC50 [2]: 210 nM
Ratio [3]: 3.3

N#Cc1nn(-c2cc(Cl)c(-n3ccc4[nH]c(=O)ccc43)c(Cl)c2)c(=O)[nH]c1=O
EC50 [1]: > 3700 nM
EC50 [2]: > 1200 nM

N#Cc1nn(-c2cc(Cl)c(-n3ccc4ccc(O)cc43)c(Cl)c2)c(=O)[nH]c1=O
EC50 [1]: > 100000 nM
EC50 [2]: > 100000 nM

N#Cc1nn(-c2cc(Cl)c(-n3ccc4cc(O)ccc43)c(Cl)c2)c(=O)[nH]c1=O
EC50 [1]: 1400 nM
EC50 [2]: 650 nM
Ratio [3]: 4.1

CCn1c(=O)ccc2c1ccn2-c1c(Cl)cc(-n2nc(C#N)c(=O)[nH]c2=O)cc1Cl
EC50 [1]: 50 nM
EC50 [2]: 20 nM
Ratio [3]: 3.8

CC(C)n1c(=O)ccc2c1ccn2-c1c(Cl)cc(-n2nc(C#N)c(=O)[nH]c2=O)cc1Cl
Activity (Mus musculus [4]): Active
EC50 [1]: 220 nM
EC50 [2]: 30 nM
half-life [5]: 8.7 h
Tmax [6]: 8 h
Cmax [7]: 2830 ng/mL
AUC(0-t) at 24 h [8]: 37500 ng·h/mL
half-life [9]: 2.98 h
half-life [10]: 3.48 h
half-life [11]: 4.55 h
half-life [12]: 0.25 h
half-life [13]: 4.38 h
CLH [14]: 11.7 mL/min/g
CLH [15]: 10 mL/min/g
CLH [16]: 7.7 mL/min/g
CLH [17]: 8 mL/min/g
half-life [18]: 4.4 h
Tmax [19]: 6 h
Tmax [20]: 4 h
Cmax [21]: 1200 ng/mL
Cmax [22]: 99000 ng/g
AUC(0-t) at 24 h [23]: 12100 ng·h/mL
Activity [24]: 33%
Activity [25]: 30.7%
Activity [26]: 33.7%
Activity [27]: 53.6%
Activity [28]: 62.1%
fold change (FC) [29]: 19
fold change (FC) [30]: 16
fold change (FC) [31]: 3
Activity (Mus musculus [32]): Dose-Dependent Effect
Activity (Mus musculus [33]): Dose-Dependent Effect
Activity [34]: Non-Toxic
Activity [35]: Non-Toxic
Activity [36]: Non-Toxic
Activity (Mus musculus [37]): Active
Activity (Mus musculus [38]): Active
Activity (Mus musculus [39]): Active
Activity (Mus musculus [40]): Active

Cn1c(=O)ccc2c1ccn2-c1c(Cl)cc(-n2nc(C#N)c(=O)[nH]c2=O)cc1Cl
EC50 [1]: 740 nM
EC50 [2]: 200 nM
Ratio [3]: 6
half-life [5]: 7 h
Tmax [6]: 3 h
Cmax [7]: 2170 ng/mL
AUC(0-t) at 24 h [8]: 26000 ng·h/mL
half-life [9]: 3.07 h
half-life [10]: 3.43 h
half-life [11]: 11.6 h
CLH [14]: 11.4 mL/min/g
CLH [15]: 10.2 mL/min/g
CLH [16]: 3 mL/min/g
Activity [24]: 33.5%
